Results: ChEMBL document CHEMBL1201862, “PubChem BioAssay data set” (2004)
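Protocol summary: plate cells (96-well), add compound at 5 concentrations, incubate 48 h, interpolate endpoints linearly. Abbreviation: GI50, concentration required for 50% inhibition of growth.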 Activity calls are given as the source filed them. Cut-off read from the data, not from the text of the source: active = GI50 up to about 1.1 µM and inactive = higher.

What was measured:
Test in all cases: growth of human tumour cells (NCI), 48 h
SF-295 = tested on: SF-295
SN12C = tested on: SN12C
NCI-H460 = tested on: NCI-H460
HOP-62 = tested on: HOP-62
HOP-92 = tested on: HOP-92
MCF7 = tested on: MCF7
COLO 205 = tested on: COLO 205
MOLT-4 = tested on: MOLT-4
786-0 = tested on: 786-0
Hs-578T = tested on: Hs-578T
IGROV-1 = tested on: IGROV-1
M14 = tested on: M14
EKVX = tested on: EKVX
DU-145 = tested on: DU-145
HCT-15 = tested on: HCT-15
OVCAR-3 = tested on: OVCAR-3
SW-620 = tested on: SW-620
HCT-116 = tested on: HCT-116
SR = tested on: SR

| SMILES | GI50 (SF-295) | GI50 (SN12C) | GI50 (NCI-H460) | GI50 (HOP-62) | GI50 (HOP-92) | GI50 (MCF7) | GI50 (COLO 205) | GI50 (MOLT-4) | GI50 (786-0) | GI50 (Hs-578T) | GI50 (IGROV-1) | GI50 (M14) | GI50 (EKVX) | GI50 (DU-145) | GI50 (HCT-15) | GI50 (OVCAR-3) | GI50 (SW-620) | GI50 (HCT-116) | GI50 (SR) |
| --- | --- | --- | --- | --- | --- | --- | --- | --- | --- | --- | --- | --- | --- | --- | --- | --- | --- | --- | --- |
| Oc1ccc(NCc2cc(O)ccc2O)cc1 | 20.7 µM (inactive) | 15.3 µM (inactive) | 18.5 µM (inactive) | 18.7 µM (inactive) | 13.1 µM (inactive) | 13.9 µM (inactive) | 23.3 µM (inactive) | 3.07 µM (inactive) | 15 µM (inactive) | 40.9 µM (inactive) | 16.4 µM (inactive) | 17.8 µM (inactive) | 15.7 µM (inactive) | 18.5 µM (inactive) | 15.6 µM | 17.3 µM (inactive) | 11.5 µM (inactive) | 15.3 µM (inactive) |  |
| C[C@]12CC[C@H]3[C@@H](CC=C4C[C@@H](O)CC[C@@]43C)[C@@H]1CC[C@@H]2N(CCO)CCO | 57.5 µM (inactive) | 33 µM (inactive) | 33.2 µM (inactive) | 51.3 µM (inactive) | 64 µM (inactive) | 33.2 µM (inactive) | 44.3 µM (inactive) | > 100 µM (inactive) | 19.7 µM (inactive) | 45.2 µM (inactive) | 50.7 µM (inactive) | 48.4 µM (inactive) | 19.4 µM (inactive) | 36.6 µM (inactive) | 71.4 µM | 34.8 µM (inactive) | 41.3 µM (inactive) | 26.9 µM (inactive) |  |
| C=CCCCCOC1C=CC(OC(C)=O)C(COC(C)=O)O1 (configuration not stated) | > 100 µM (inactive) | > 100 µM (inactive) | > 100 µM (inactive) | > 100 µM (inactive) | > 100 µM (inactive) | > 100 µM (inactive) | > 100 µM (inactive) | > 100 µM (inactive) | > 100 µM (inactive) | 0.324 µM (active) | > 100 µM (inactive) | > 100 µM (inactive) | > 100 µM (inactive) | > 100 µM (inactive) | > 100 µM | > 100 µM (inactive) | > 100 µM (inactive) | > 100 µM (inactive) |  |
| NC(=S)N/N=C1\CCc2ccccc2C1 | > 100 µM (inactive) | > 100 µM (inactive) | > 100 µM (inactive) | > 100 µM (inactive) | > 100 µM (inactive) | 54.2 µM (inactive) | > 100 µM (inactive) | > 100 µM (inactive) | > 100 µM (inactive) |  | > 100 µM (inactive) | > 100 µM (inactive) | 27 µM (inactive) | > 100 µM (inactive) | > 100 µM | > 100 µM (inactive) | > 100 µM (inactive) | > 100 µM (inactive) | > 100 µM (inactive) |
| C(=N\NC1=NCCCN1)/c1ccc(-c2cn3cc(/C=N/NC4=NCCCN4)ccc3n2)cc1 | > 100 µM (inactive) | > 100 µM (inactive) | 7.23 µM (inactive) | > 79.8 µM (inactive) | 59 µM (inactive) | 32 µM (inactive) | > 100 µM (inactive) | 5.73 µM (inactive) | 18.9 µM (inactive) |  | 50.6 µM (inactive) | > 81.1 µM (inactive) | 45.9 µM (inactive) | 26.6 µM (inactive) | > 100 µM | > 100 µM (inactive) | > 100 µM (inactive) | > 88.3 µM (inactive) |  |
| CCOC(=O)C(C)(c1c(C)[nH]c2ccccc12)c1c(C)[nH]c2ccccc12 | 14 µM (inactive) |  | 17.6 µM (inactive) | 18.9 µM (inactive) |  |  |  | 13.6 µM (inactive) | 19.1 µM (inactive) |  | 20.6 µM (inactive) | 14.4 µM (inactive) | 25.5 µM (inactive) |  | 15 µM | 16 µM (inactive) | 16.9 µM (inactive) | 12.5 µM (inactive) |  |
| C=C(C)[C@H]1CC(=O)/C(C)=C\CC/C(C)=C/CC[C@@]2(C)O[C@@H]2C1 | 34.3 µM (inactive) | 20.8 µM (inactive) | 16.8 µM (inactive) | 40.2 µM (inactive) | 48.5 µM (inactive) |  | 16.5 µM (inactive) | 31.8 µM (inactive) | 47.5 µM (inactive) | 30.9 µM (inactive) | 29 µM (inactive) | 32.5 µM (inactive) |  | 17.7 µM (inactive) | 33.9 µM | 17 µM (inactive) | 46.3 µM (inactive) | 16 µM (inactive) | 25.4 µM (inactive) |
| C=CCOC(=O)CCCCCCCCCCCCCCCOC(=O)c1c(CCC[C@@H](C)O[Si](C)(C)C(C)(C)C)nc([O-])[n+]2c1CC[C@H]2CC1(CC/C=C\[C@H](CC)O[Si](C(C)C)(C(C)C)C(C)C)OCCO1 | 48.8 µM (inactive) | 34 µM (inactive) | > 100 µM (inactive) | 48.6 µM (inactive) | 18.2 µM (inactive) | 53.5 µM (inactive) | > 100 µM (inactive) |  | 26.7 µM (inactive) |  |  | > 100 µM (inactive) | > 100 µM (inactive) | > 100 µM (inactive) | 46 µM | 50.8 µM (inactive) |  | 47.1 µM (inactive) |  |
